Consider six molecules from article PMC10816808, “Enhancement of the Antitumor and Antimetastatic Effect of Topotecan and Normalization of Blood Counts in Mice with Lewis Carcinoma by Tdp1 Inhibitors—New Usnic Acid Derivatives” (International Journal of Molecular Sciences, 2024).

The subject of one data set is cells. The settings on record: cited from earlier work; for CC50: read-out: CC50 values (toxicity to cells).
Data set [1] concerns mouse Lewis lung adenocarcinoma. More on the design: method as in PMID 34370156. As to conditions: cited from earlier work.
Another data set concerns the target T1, Tdp1 (Homo sapiens, UniProt Q9NUW8).
T1 construct: Purified Tdp1 (1.5 nM) triggered the reaction
Nature of the data set: Tdp1 inhibition, fluorescent oligonucleotide biosensor. In kind it is biochemical. As to conditions: purified Tdp1 1.5 nM, 50 nM biosensor; read-out: Concentration of half-maximal inhibition of Tdp1 (IC50). The source says: The inhibitory properties of the compound on the purified Tdp1 was studied using a technique developed previously by our team. A 16-mer single-stranded oligonucleotide carrying a fluorophore at the 5′-end and a quencher at the 3′-end was used as a biosensor. When within the Förster radius, the quencher suppressed the fluorescence of the fluorophore. The quencher was removed by Tdp1, resulting in fluorescence emission. Usnic acid derivatives with a bromophenol residue in the enamine fragment (compounds 6 and 8) inhibit the enzyme with half-maximal inhibition concentrations (IC50) an order of magnitude worse than derivatives with a di-tert-butyl fragment (compounds 5 and 7).
An oligonucleotide 5′-[FAM] AAC GTC AGGGTC TTC C [BHQ1]-3′ synthesized in the laboratory Laboratory of Nucleic Acids Chemistry at the Institute of Chemical Biology and Fundamental Medicine (Novosibirsk, Russia) was used as a biosensor. Removal of the quencher (BHQ1) due to enzyme activity leads to increased fluorescence of FAM. The reaction was carried out at different concentrations of inhibitors (1.5% of DMSO, Sigma, St. Louis, MO, USA, in the control samples). The reaction mixtures contained Tdp1 buffer (50 mM Tris-HCl pH 8.0, 50 mM NaCl, and 7 mM β-mercaptoethanol), 50 nM biosensor, and an inhibitor being tested. Purified Tdp1 (1.5 nM) triggered the reaction.
The fluorescence was measured using POLARstar OPTIMA fluorimeter (BMG LABTECH, GmbH, Ortenberg, Germany). The values of IC50 were determined in minimum three independent experiments and were calculated using embedded software MARS Data Analysis 2.0 (BMG LABTECH, GmbH, Ortenberg, Germany).

The nature of data set [2]: MTT cytotoxicity test, A-549. In kind it is cell-based. As to conditions: human, A-549 cells (lung cancer), read-out: semitoxic concentration (CC50), A-549. The source says:
(§1) Compounds 6 and 8 with a bromophenol residue in the enamine fragment have a weak or moderate effect on cell survival (Table 1 and Supplementary Figure S1).
(§2) Cytotoxicity of the compounds against human tumor cell lines: HeLa (cervical cancer), HCT-116 (colorectal cancer), A-549 (lung cancer), MCF-7 (breast cancer), T98G (glioblastoma), HepG2 (hepatocarcinoma), and nontumor cell lines: MRC-5 (lung fibroblasts) and HEK293A (human embryonic kidney) was examined using the MTT test. HCT-116 and MRC-5 cell lines were provided by the Cell Culture Bank of the State Research Center for Virology and Biotechnology Vector, Novosibirsk, Russia. A-549, MCF-7, and T98G cell lines were obtained from the Russian Cell Culture Collection (RCCC) Institute of Cytology RAS (St. Petersburg, Russia). HEK293A cells were purchased (ThermoFisher Scientific, Waltham, MA, USA).
(§3) The cell culture medium DMEM medium (Invitrogen, Carlsbad, CA, USA) contained 10% fetal bovine serum (FBS) (Invitrogen), penicillin (100 units/mL), and streptomycin (100 µg/mL). Cells were seeded into 96-well plates at 5000 cells per well and grown at 37 °C and 5% CO2 in a humid atmosphere. At 30–50% confluence, the tested compounds were added to the medium to a final DMSO content of 1%. Control wells contained 1% DMSO. To determine the cytotoxicity of Tdp1 inhibitors, the cells were treated with compounds with concentrations ranging from 1 to 100 µM for 72 h at 37 °C […]. All measurements were repeated a minimum of twice.
In general terms: Tetrazolium dyes change colour on reduction, which living cells bring about.

Data set [3] is described as follows: MTT cytotoxicity test, HCT-116. The format is cell-based. As to conditions: human, HCT-116 cells (colorectal cancer), read-out: semitoxic concentration (CC50), HCT-116.
Text: as §1, §2, §3

Data set [4] is described as follows: MTT cytotoxicity test, HEK293A. In kind it is cell-based. As to conditions: human, HEK293A cells (embryonic kidney, nontumor), read-out: semitoxic concentration (CC50), HEK293A.
Text: as §1, §2, §3

Data set [5] in a line: MTT cytotoxicity test, MCF-7. The format is cell-based. As to conditions: human, MCF-7 cells (breast cancer), read-out: semitoxic concentration (CC50), MCF-7.
Text: as §1, §2, §3

Data set [6] is described as follows: MTT cytotoxicity test, MRC-5. The settings on record: human, MRC-5 cells (lung fibroblasts, nontumor), read-out: semitoxic concentration (CC50), MRC-5. The format is cell-based.
Text: as §1, §2, §3

The nature of data set [7]: MTT cytotoxicity test, T98G. In kind it is cell-based. The settings on record: human, T98G cells (glioblastoma), read-out: semitoxic concentration (CC50), T98G.
Text: as §1, §2, §3

Data set [8] can be described thus: MTT cytotoxicity test, HeLa. The format is cell-based. The settings on record: human, HeLa cells (cervical cancer), read-out: semitoxic concentration (CC50), HeLa.
Text: as §1, §2, §3

The test system of data set [9] is various types of cultured cells. Nature of the data set: MTT test, panel of cultured cell lines. The format is cell-based. As to conditions: at concentrations up to 100 μM; wide panel of tumor and non-cancerous cell lines.
Text: as §1, §2
The cell culture medium DMEM medium (Invitrogen, Carlsbad, CA, USA) contained 10% fetal bovine serum (FBS) (Invitrogen), penicillin (100 units/mL), and streptomycin (100 µg/mL). Cells were seeded into 96-well plates at 5000 cells per well and grown at 37 °C and 5% CO2 in a humid atmosphere. At 30–50% confluence, the tested compounds were added to the medium to a final DMSO content of 1%. Control wells contained 1% DMSO. […]

SMILES strings stand for the structures.

T1 sequence (Q9NUW8 whole entry): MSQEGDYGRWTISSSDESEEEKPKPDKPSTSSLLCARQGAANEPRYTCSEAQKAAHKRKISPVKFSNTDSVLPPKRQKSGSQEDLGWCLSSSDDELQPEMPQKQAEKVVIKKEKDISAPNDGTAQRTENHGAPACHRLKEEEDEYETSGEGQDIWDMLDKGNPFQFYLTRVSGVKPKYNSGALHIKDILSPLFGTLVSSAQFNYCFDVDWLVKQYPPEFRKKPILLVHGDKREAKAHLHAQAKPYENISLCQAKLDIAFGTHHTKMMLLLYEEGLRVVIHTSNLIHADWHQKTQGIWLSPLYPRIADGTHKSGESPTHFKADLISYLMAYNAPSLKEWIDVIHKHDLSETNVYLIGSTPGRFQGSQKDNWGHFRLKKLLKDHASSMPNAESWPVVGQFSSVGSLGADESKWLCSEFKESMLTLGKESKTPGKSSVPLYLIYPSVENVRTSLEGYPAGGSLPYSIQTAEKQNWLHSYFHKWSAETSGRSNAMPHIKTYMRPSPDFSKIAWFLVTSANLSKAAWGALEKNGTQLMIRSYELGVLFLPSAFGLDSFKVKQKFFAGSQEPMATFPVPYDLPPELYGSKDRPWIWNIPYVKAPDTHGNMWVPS

As to `CC(=O)c1c(O)c(C)c(O)c2c1OC1=CC(=O)/C(=C(\C)NCCCc3cc(C(C)(C)C)c(O)c(C(C)(C)C)c3)C(=O)[C@@]12C` [Compound 1], in the data set with cells, the “toxicity to the different cell types (in words)” value is “nontoxic”. In addition, the “enhancement of the antitumor effect of topotecan” value in data set [1] is listed as “enhanced at least twofold”.

`CC(=O)c1c(O)c(C)c(O)c2c1OC1=CC(=O)/C(=C(\C)Nc3ccc(Br)cc3)C(=O)[C@@]12C` [Compound 2]: the “toxicity to the different cell types (in words)” value in the data set with cells was “nontoxic”.

Consider `CC(=O)C1=C(O)C=C2Oc3c(-c4csc(N/N=C/c5ccc(Br)s5)n4)c(O)c(C)c(O)c3[C@@]2(C)C1=O` [Compound 3], for which, in the data set on cells, the CC50 was 9 to 16 µM.

With `CC(=O)C1=C(O)C=C2Oc3c(-c4csc(N/N=C/c5ccc(Br)cc5)n4)c(O)c(C)c(O)c3[C@@]2(C)C1=O` [Compound 4, reference compound], the IC50 at Tdp1 was 0.03 ± 0.01 µM. Also, the CC50 at 72 h in data set [2] is 3.9 ± 0.2 µM; in data set [3], 7 ± 0.6 µM; in [4] it was 12 ± 5 µM; in data set [5], 9.3 ± 2.2 µM; in [6] it was 7 ± 0.7 µM; in data set [7], 4 ± 1 µM. The CC50 in the data set on cells was 1.5 µM.

For `C/C(NCCCc1cc(C(C)(C)C)c(O)c(C(C)(C)C)c1)=C1\C(=O)C=C2Oc3c(-c4csc(N/N=C/c5ccc(Br)s5)n4)c(O)c(C)c(O)c3[C@@]2(C)C1=O` [Compound 5, (4E)-10-{2-[(E)-2-[(5-bromothiophenyl)methylidene]hydrazin-1-yl]-1,3-thiazole-4-yl}-4-(1-{[3-(3,5-di-tret-butyl-4-hydroxyhenyl)propyl]amino}ethylidene)-11,13-dihydroxy-2,12-dimethyl-8-oxatricyclo [7.4.0.02,7]trideca-1(13),6,9,11-tetraen-3,5-dione], on Tdp1, the IC50 amounted to 0.14 ± 0.02 µM. Besides, the CC50 at 72 h in data set [2], in data set [3], in [4], in data set [8], in [5] and in [6] was above 100 µM each time. The CC50 at 72 h in [7] was above 100 µM. Besides, the “living cells (metabolic activity, MTT)” value in data set [9] was “more than 50%”.

In the case of `C/C(Nc1ccc(Br)cc1)=C1\C(=O)C=C2Oc3c(-c4csc(N/N=C/c5ccc(Br)cc5)n4)c(O)c(C)c(O)c3[C@@]2(C)C1=O` [Compound 8, (4E)-4-{1-[(4-bromophenyl)amino]ethilidene}-10-{2-[(E)-2-[(4-bromophenyl)methylidene]hydrazin-1-yl]-1,3-thiazol-4-yl}-11,13-dihydroxy-2,12-dimethyl-8-oxatricyclo [7.4.0.02,7]trideca-1(13),6,9,11-tetraen-3,5-dione], the IC50 on Tdp1 is 5 ± 1 µM. Besides, the CC50 at 72 h in data set [2] was 30 ± 10 µM; in [4], 88 ± 26 µM; in data set [8], above 100 µM; in [5], 30 ± 20 µM; in data set [7] it was 44 ± 13 µM.
